{
  "source": "patent US9434724B2",
  "about": "“Quinuclidines for modulating alpha 7 activity” (priority 2014, dated 2016)",
  "note": "pIC50, pKi: −log10 of the molar value.",
  "data": [
    {"tested_on": "not listed separately", "assay": "Metabolic stability assay in human liver microsomes (HLM)", "assay_type": "in vitro ADME", "conditions": "human, microsomes, 1 μM, pH 7.4", "procedure": "(§1) Protocol 1: Studies were carried out in human and rat liver microsomes (“HLM” and “RLM,” respectively). Human and rat liver microsomes were purchased from BD Gentest. DMSO stocks were prepared for the test compounds. Aliquots of the DMSO solutions were diluted to 0.5 mM by acetonitrile, then further diluted by liver microsomes/buffer to 1.5 μM. 30 μL of 1.5 μM solutions were mixed with 15 μL of 6 mM NADPH, which had been pre-warmed to 37° C., at a final test compound concentration of 1 μM. The plates were kept in a 37° C. water bath for the duration of the experiment. At each time point (0, 5, 15, 30, 45 minutes), 135 μL of acetonitrile was added into corresponding wells. After the final time point was sampled, the plates were shaken at a vibrator (IKA, MTS 2/4) for 10 min (600 rpm/min) and then centrifuged at 5594 g for 15 min (Thermo Multifuge×3R). Aliquots of the supernatant were removed, diluted 1:1 into distilled water, and analyzed by LC-MS/MS. The peak area response ratio to internal standard (PARR) of the compounds at 5, 15, 30, 45 minutes was compared to the PARR at time 0 to determine the percent of test compound remaining at each time point. Half-lives were calculated using Excel software, fitting to a single-phase exponential decay equation.\n(§2) Protocol 2: Studies were carried out in human and rat liver microsomes. Buffer solutions were prepared as follows: Buffer A: 1.0 L of 0.1 M monobasic Potassium Phosphate buffer containing 1.0 mM EDTA; Buffer B: 1.0 L of 0.1 M Dibasic Potassium Phosphate buffer containing 1.0 mM EDTA; Buffer C: 0.1 M Potassium Phosphate buffer, 1.0 mM EDTA, pH 7.4 by titrating 700 mL of buffer B with buffer A while monitoring with a pH meter.\n(§3) Reference compound (Ketanserin) and test compound spiking solutions were prepared as follows: 500 μM spiking solution: add 10 μL of 10 mM DMSO stock solution into 190 μL ACN; 1.5 μM spiking solution in microsomes (0.75 mg/mL): add 1.5 μL of 500 μM spiking solution and 18.75 μL of 20 mg/mL liver microsomes into 479.75 μL of Buffer C.\n(§4) NADPH stock solution (6 mM) was prepared by dissolving NADPH into buffer C.\n(§5) Assay procedure: 30 μL of 1.5 μM spiking solution containing 0.75 mg/mL microsomes solution was dispensed to the wells designated for […]. The plate was pre-incubated at 37° C. for 10 minutes. 15 μL of NADPH stock solution (6 mM) was added to the wells designated as Time 45, and the timer was started. At 30 mM, 15 mM, and 5 mM, 15 μL NADPH stock solution (6 mM) was added to the wells, respectively. At the end of incubation (0 mM), 135 μL of ACN containing IS was added to all the wells. Then 15 μL of NADPH stock solution (6 mM) was added to the wells designated as Time 0. After quenching, the reaction mixtures were centrifuged at 3220 g for […]. Following centrifugation, 50 μL of the supernatant was transferred from each well into a 96-well sample plate containing 50 μL of ultra-pure water (Millipore) for LC/MS analysis. The peak area response (PARR) ratio to internal standard of the compounds at 5, 15, 30, and 45 minutes was compared to the PARR at time 0 to determine the percent of test compound remaining at each time point. Half-lives were calculated using Excel software, fitting to a single-phase exponential decay equation.", "units": {"HLM": "mL/min/kg"}, "values": [
      {"molecule": "Cc1ccc2[nH]cc(C(=O)OCC34CCN(CC3)CC4)c2c1", "note": "[Compound 20, quinuclidin-4-ylmethyl 5-methyl-1H-indole-3-carboxylate]", "HLM": "<13.608"},
      {"molecule": "N#Cc1ccc2c(C(=O)OCC34CCN(CC3)CC4)c[nH]c2c1", "note": "[Compound 28, quinuclidin-4-ylmethyl 6-cyano-1H-indole-3-carboxylate]", "HLM": "<13.608"},
      {"molecule": "COc1ccc2[nH]cc(C(=O)OCC34CCN(CC3)CC4)c2c1C", "note": "[Compound 34, quinuclidin-4-ylmethyl 5-methoxy-4-methyl-1H-indole-3-carboxylate]", "HLM": "<13.608"},
      {"molecule": "COc1cccc2[nH]cc(C(=O)OCC34CCN(CC3)CC4)c12", "note": "[Compound 36, quinuclidin-4-ylmethyl 4-methoxy-1H-indole-3-carboxylate]", "HLM": "<13.608"}
    ]},
    {"target": "CYP2C9 (Homo sapiens (Human), UniProt P11712)", "sequence (P11712 whole entry)": "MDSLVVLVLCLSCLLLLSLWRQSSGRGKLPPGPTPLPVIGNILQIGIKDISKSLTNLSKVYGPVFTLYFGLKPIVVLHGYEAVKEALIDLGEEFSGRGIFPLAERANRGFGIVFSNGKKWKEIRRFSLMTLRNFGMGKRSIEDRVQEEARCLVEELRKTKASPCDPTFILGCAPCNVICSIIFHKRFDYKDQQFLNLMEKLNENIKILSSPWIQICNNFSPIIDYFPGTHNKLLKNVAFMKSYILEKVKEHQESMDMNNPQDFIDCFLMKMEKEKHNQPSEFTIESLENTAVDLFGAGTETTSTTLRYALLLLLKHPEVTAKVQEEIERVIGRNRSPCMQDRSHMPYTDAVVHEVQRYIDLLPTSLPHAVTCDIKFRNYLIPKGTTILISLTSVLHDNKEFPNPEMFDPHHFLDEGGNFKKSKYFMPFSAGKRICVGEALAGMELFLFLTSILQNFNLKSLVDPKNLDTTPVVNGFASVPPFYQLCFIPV", "assay": "Cytochrome P450 inhibition in human liver microsomes, CYP2C9", "conditions": "read-out: 2C9 IC50, Protocol 2", "values": [
      {"molecule": "N#Cc1ccc2c(C(=O)OCC34CCN(CC3)CC4)c[nH]c2c1", "note": "[Compound 28, quinuclidin-4-ylmethyl 6-cyano-1H-indole-3-carboxylate]", "pIC50": "< 5.00"},
      {"molecule": "COc1ccc2[nH]cc(C(=O)OCC34CCN(CC3)CC4)c2c1C", "note": "[Compound 34, quinuclidin-4-ylmethyl 5-methoxy-4-methyl-1H-indole-3-carboxylate]", "pIC50": "< 5.00"}
    ]},
    {"target": "CYP2C19 (Homo sapiens (Human), UniProt P33261)", "sequence (P33261 whole entry)": "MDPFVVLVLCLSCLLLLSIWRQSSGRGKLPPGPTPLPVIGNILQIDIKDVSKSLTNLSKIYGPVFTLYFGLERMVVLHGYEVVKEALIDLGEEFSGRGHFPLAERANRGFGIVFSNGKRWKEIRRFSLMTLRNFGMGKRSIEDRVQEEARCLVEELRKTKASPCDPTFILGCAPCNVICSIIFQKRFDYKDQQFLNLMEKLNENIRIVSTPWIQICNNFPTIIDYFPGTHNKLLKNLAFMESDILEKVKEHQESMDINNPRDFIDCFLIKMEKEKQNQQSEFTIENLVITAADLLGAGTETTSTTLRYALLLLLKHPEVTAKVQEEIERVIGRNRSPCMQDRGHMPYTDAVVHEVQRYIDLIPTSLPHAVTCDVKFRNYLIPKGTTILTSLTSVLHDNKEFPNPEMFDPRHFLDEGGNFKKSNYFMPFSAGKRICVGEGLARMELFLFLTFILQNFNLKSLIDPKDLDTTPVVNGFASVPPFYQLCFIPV", "assay": "Cytochrome P450 inhibition in human liver microsomes, CYP2C19", "conditions": "read-out: 2C19 IC50, Protocol 2", "values": [
      {"molecule": "N#Cc1ccc2c(C(=O)OCC34CCN(CC3)CC4)c[nH]c2c1", "note": "[Compound 28, quinuclidin-4-ylmethyl 6-cyano-1H-indole-3-carboxylate]", "pIC50": "< 5.00"},
      {"molecule": "COc1ccc2[nH]cc(C(=O)OCC34CCN(CC3)CC4)c2c1C", "note": "[Compound 34, quinuclidin-4-ylmethyl 5-methoxy-4-methyl-1H-indole-3-carboxylate]", "pIC50": "< 5.00"}
    ]},
    {"target": "CYP1A2 (Homo sapiens (Human), UniProt P05177)", "sequence (P05177 whole entry)": "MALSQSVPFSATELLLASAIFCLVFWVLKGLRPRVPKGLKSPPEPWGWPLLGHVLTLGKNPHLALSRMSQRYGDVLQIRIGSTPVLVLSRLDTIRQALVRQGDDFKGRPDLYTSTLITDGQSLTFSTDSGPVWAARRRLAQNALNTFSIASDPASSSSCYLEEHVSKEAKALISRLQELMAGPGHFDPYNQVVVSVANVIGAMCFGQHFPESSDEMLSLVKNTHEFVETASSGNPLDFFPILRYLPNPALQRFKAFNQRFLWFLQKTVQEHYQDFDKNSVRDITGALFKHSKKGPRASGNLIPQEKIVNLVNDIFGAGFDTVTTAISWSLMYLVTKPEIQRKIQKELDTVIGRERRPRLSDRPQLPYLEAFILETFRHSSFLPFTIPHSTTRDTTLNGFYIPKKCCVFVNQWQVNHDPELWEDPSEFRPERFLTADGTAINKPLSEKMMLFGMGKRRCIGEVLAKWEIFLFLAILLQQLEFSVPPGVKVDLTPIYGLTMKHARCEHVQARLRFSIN", "assay": "Cytochrome P450 inhibition in human liver microsomes, CYP1A2", "conditions": "read-out: 1A2 IC50, Protocol 2", "values": [
      {"molecule": "Cc1ccc2[nH]cc(C(=O)OCC34CCN(CC3)CC4)c2c1", "note": "[Compound 20, quinuclidin-4-ylmethyl 5-methyl-1H-indole-3-carboxylate]", "pIC50": "< 5.00"},
      {"molecule": "N#Cc1ccc2c(C(=O)OCC34CCN(CC3)CC4)c[nH]c2c1", "note": "[Compound 28, quinuclidin-4-ylmethyl 6-cyano-1H-indole-3-carboxylate]", "pIC50": "< 5.00"},
      {"molecule": "COc1ccc2[nH]cc(C(=O)OCC34CCN(CC3)CC4)c2c1C", "note": "[Compound 34, quinuclidin-4-ylmethyl 5-methoxy-4-methyl-1H-indole-3-carboxylate]", "pIC50": "< 5.00"},
      {"molecule": "COc1cccc2[nH]cc(C(=O)OCC34CCN(CC3)CC4)c12", "note": "[Compound 36, quinuclidin-4-ylmethyl 4-methoxy-1H-indole-3-carboxylate]", "pIC50": "< 5.00"}
    ]},
    {"target": "rat brain nicotinic receptor (α7 NAChR) (Rattus norvegicus (Rat), UniProt Q05941)", "sequence (Q05941 23-502 limits assumed)": "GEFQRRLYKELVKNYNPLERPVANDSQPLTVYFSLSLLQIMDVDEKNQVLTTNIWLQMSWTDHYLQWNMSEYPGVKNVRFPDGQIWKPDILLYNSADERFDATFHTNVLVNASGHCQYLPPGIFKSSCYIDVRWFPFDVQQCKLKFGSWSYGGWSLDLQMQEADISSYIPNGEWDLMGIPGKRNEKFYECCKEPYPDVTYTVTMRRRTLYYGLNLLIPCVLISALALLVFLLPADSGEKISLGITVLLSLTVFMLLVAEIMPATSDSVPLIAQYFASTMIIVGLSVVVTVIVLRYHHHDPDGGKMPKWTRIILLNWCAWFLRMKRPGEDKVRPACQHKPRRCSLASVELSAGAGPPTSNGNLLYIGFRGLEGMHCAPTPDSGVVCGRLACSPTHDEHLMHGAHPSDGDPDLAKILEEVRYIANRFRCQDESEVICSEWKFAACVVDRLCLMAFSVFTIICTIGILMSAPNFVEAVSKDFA", "assay": "not given", "assay_type": "binding", "conditions": "not given", "values": [
      {"molecule": "Cc1ccc2[nH]cc(C(=O)OCC34CCN(CC3)CC4)c2c1", "note": "[Compound 20, quinuclidin-4-ylmethyl 5-methyl-1H-indole-3-carboxylate]", "pIC50": 7.17, "pKi": 7.22},
      {"molecule": "COc1ccc2[nH]cc(C(=O)OCC34CCN(CC3)CC4)c2c1C", "note": "[Compound 34, quinuclidin-4-ylmethyl 5-methoxy-4-methyl-1H-indole-3-carboxylate]", "pIC50": 7.63, "pKi": 7.69},
      {"molecule": "COc1cccc2[nH]cc(C(=O)OCC34CCN(CC3)CC4)c12", "note": "[Compound 36, quinuclidin-4-ylmethyl 4-methoxy-1H-indole-3-carboxylate]", "pIC50": 7.31, "pKi": 7.37}
    ]},
    {"tested_on": "not listed separately", "assay": "Human plasma stability", "assay_type": "in vitro ADME", "conditions": "human, plasma, 2 h, 1 μM, pH 7.4", "procedure": "(§6) Protocol 1: Studies were carried out in human plasma. All plasma was obtained from Bioreclamation and collected on sodium heparin. Plasma was adjusted to pH 7.4. A DMSO stock was first prepared for the test compound. An aliquot of the DMSO solution was dosed into 1 mL of plasma, which had been pre-warmed to 37° C., at a final test compound concentration of 1 μM. The vials were kept in a benchtop Thermomixer® for the duration of the experiment. Aliquots (100 μL) were taken at each time point (0, 15, 30, 60, and 120 minutes) and added to 96-well plates which had been pre-filled with 300 μL of acetonitrile. Samples were stored at 4° C. until the end of the experiment. After the final time point was sampled, the plate was mixed and then centrifuged at 3,000 rpm for 10 minutes. Aliquots of the supernatant were removed, diluted 1:1 into distilled water, and analyzed by LC-MS/MS. The peak area response ratio to internal standard (PARR) of the compound at 15, 30, 60 and 120 minutes was compared to the PARR at time 0 to determine the percent of test compound remaining at each time point. Half-lives were calculated using GraphPad software, fitting to a single-phase exponential decay equation.\n(§7) Protocol 2: Studies were carried out in plasma. Plasma was prepared under approval of IRB and IACUC on sodium heparin. The pH of plasma was monitored and used within the range of pH 7.4 to pH 8.0. DMSO stocks were prepared for the test compounds. Aliquots of the DMSO solutions were diluted to 0.05 mM by 0.05 mM Sodium phosphate buffer with 0.5% BSA. Then 10 μL of 0.05 mM solutions were dosed into 90 μL of plasma in duplicates (n=2), which had been pre-warmed to 37° C., at a final test compound concentration of 5 μM. The plates were kept in a 37° C. water bath for the duration of the experiment. At each time point (0, 5, 15, 30, 45, 60, and 120 minutes), 400 μL of acetonitrile was added into corresponding wells. After the final time point was sampled, the plates were shaken at the vibrator (IKA, MTS 2/4) for 10 min (600 rpm/min) and then centrifuged at 5594 g for 15 min (Thermo Multifuge×3R). Aliquots of the supernatant were removed, diluted 1:1 into distilled water, and analyzed by LC-MS/MS. The peak area response ratio to internal standard (PARR) of the compounds at 5, 15, 30, 45, 60, and 120 minutes was compared to the PARR at time 0 to determine the percent of test compound remaining at each time point. Half-lives were calculated using Excel software, fitting to a single-phase exponential decay equation.", "units": {"% Remaining @ 2 h": "%"}, "values": [
      {"molecule": "Cc1ccc2[nH]cc(C(=O)OCC34CCN(CC3)CC4)c2c1", "note": "[Compound 20, quinuclidin-4-ylmethyl 5-methyl-1H-indole-3-carboxylate]", "% Remaining @ 2 h": 14},
      {"molecule": "N#Cc1ccc2c(C(=O)OCC34CCN(CC3)CC4)c[nH]c2c1", "note": "[Compound 28, quinuclidin-4-ylmethyl 6-cyano-1H-indole-3-carboxylate]", "% Remaining @ 2 h": 79},
      {"molecule": "COc1ccc2[nH]cc(C(=O)OCC34CCN(CC3)CC4)c2c1C", "note": "[Compound 34, quinuclidin-4-ylmethyl 5-methoxy-4-methyl-1H-indole-3-carboxylate]", "% Remaining @ 2 h": 55},
      {"molecule": "COc1cccc2[nH]cc(C(=O)OCC34CCN(CC3)CC4)c12", "note": "[Compound 36, quinuclidin-4-ylmethyl 4-methoxy-1H-indole-3-carboxylate]", "% Remaining @ 2 h": 2.5}
    ]},
    {"tested_on": "not listed separately", "assay": "Human plasma stability", "assay_type": "in vitro ADME", "conditions": "human, plasma, pH 7.4", "procedure": "as §6, §7", "units": {"half-life at 1 μM": "min"}, "values": [
      {"molecule": "Cc1ccc2[nH]cc(C(=O)OCC34CCN(CC3)CC4)c2c1", "note": "[Compound 20, quinuclidin-4-ylmethyl 5-methyl-1H-indole-3-carboxylate]", "half-life at 1 μM": 41.2},
      {"molecule": "N#Cc1ccc2c(C(=O)OCC34CCN(CC3)CC4)c[nH]c2c1", "note": "[Compound 28, quinuclidin-4-ylmethyl 6-cyano-1H-indole-3-carboxylate]", "half-life at 1 μM": "> 120"},
      {"molecule": "COc1ccc2[nH]cc(C(=O)OCC34CCN(CC3)CC4)c2c1C", "note": "[Compound 34, quinuclidin-4-ylmethyl 5-methoxy-4-methyl-1H-indole-3-carboxylate]", "half-life at 1 μM": "> 120"},
      {"molecule": "COc1cccc2[nH]cc(C(=O)OCC34CCN(CC3)CC4)c12", "note": "[Compound 36, quinuclidin-4-ylmethyl 4-methoxy-1H-indole-3-carboxylate]", "half-life at 1 μM": 28}
    ]},
    {"tested_on": "not listed separately", "assay": "Metabolic stability assay in rat liver microsomes (RLM)", "assay_type": "in vitro ADME", "conditions": "rat, microsomes, 1 μM, pH 7.4", "procedure": "as §1, §2, §3, §4, §5", "units": {"RLM": "mL/min/kg"}, "values": [
      {"molecule": "Cc1ccc2[nH]cc(C(=O)OCC34CCN(CC3)CC4)c2c1", "note": "[Compound 20, quinuclidin-4-ylmethyl 5-methyl-1H-indole-3-carboxylate]", "RLM": 276.124},
      {"molecule": "N#Cc1ccc2c(C(=O)OCC34CCN(CC3)CC4)c[nH]c2c1", "note": "[Compound 28, quinuclidin-4-ylmethyl 6-cyano-1H-indole-3-carboxylate]", "RLM": 28.4342},
      {"molecule": "COc1ccc2[nH]cc(C(=O)OCC34CCN(CC3)CC4)c2c1C", "note": "[Compound 34, quinuclidin-4-ylmethyl 5-methoxy-4-methyl-1H-indole-3-carboxylate]", "RLM": 125.64},
      {"molecule": "COc1cccc2[nH]cc(C(=O)OCC34CCN(CC3)CC4)c12", "note": "[Compound 36, quinuclidin-4-ylmethyl 4-methoxy-1H-indole-3-carboxylate]", "RLM": 52.02}
    ]}
  ]
}
